Results: US9744175B2, “Compositions of combinations of non-covalent DNA binding agents and anti-cancer and/or anti-inflammatory agents and their use in disease treatment” (INDUS PHARMACEUTICALS, INC., priority 2012, dated 2017)

Experiments:
[1] = test system: yeast rad50 mutation; test: Alamar Blue cell survival assay in yeast cells; type: cell-based
Experimental: (§1) The cells are diluted 100-fold in yeast complete medium. 100 μL of diluted cells are seeded in 96 well plates with or without a non-covalent DNA binding compound and incubated for 24 hours at 30° C. The following day, an equal volume of yeast complete medium containing 1% alamar blue is added and incubated at 30° C. for two hours. Fluorescence intensity is measured in a fluorescent reader to calculate the inhibition effect of non-covalent DNA binding agents in mutant and wild type yeast cells.
(§2) Yeast cells that carry mutations in different genes involved in homologous recombination (rad 50, rad51, rad52, and rad57) and nucleotide excision/double strand repair (rad1) are grown to stationary culture overnight.

[2] = test system: yeast rad1 mutation; test: Alamar Blue cell survival assay in yeast cells; type: cell-based
Experimental: as §1, §2

[3] = test system: yeast rad52 mutation; test: Alamar Blue cell survival assay in yeast cells; type: cell-based
Experimental: as §1, §2

[4] = test system: yeast rad51 mutation; test: Alamar Blue cell survival assay in yeast cells; type: cell-based
Experimental: as §1, §2

[5] = test system: Wild type yeast; test: Alamar Blue cell survival assay in yeast cells; type: cell-based
Experimental: as §1, §2

[6] = test system: U2OS; test: Growth inhibition in tumor cell lines (Table 2); type: cell-based, human; settings: Osteosacroma, WT, lack of EGFR
[7] = Intravenous and oral pharmacokinetics in male Sprague-Dawley rats; type: in vivo, rat; settings: for AUC0-inf / AUC0-t / Cmax / Tmax: rat blood; for AUC0-inf / AUC0-t / Cmax: mean ± SD; for Tmax: median; for T1/2: harmonic mean
Experimental: Intravenous and oral pharmacokinetic studies are conducted on the novel non-covalent DNA binding agents, NSC 718813, NSC 723734 and NSC 726260, in male Sprague-Dawley rats. The studies are conducted in a parallel design with two groups of four male rats each for intravenous and oral administration of the test agents. The protocols for the studies are approved by the appropriate institutional animal care and use committee.
Groups of rats designated to receive oral doses of the novel non-covalent DNA binding agents of the invention molecules receive an oral dose of 20 mg/kg in a formulation vehicle comprised of N,N-dimethylacetamide (DMA), polyethylene glycol 400 (PEG400), ethanol, Cremophor EL and water (10:10:10:5:65 v/v). The dose volume for the oral doses of the test compounds is 8 mL/kg. Groups of rats are randomized to receive intravenous doses of agents. These rats receive a single intravenous bolus dose of 3 mg/kg of the test compound in a vehicle comprised of DMA:PEG400:ethanol:Cremophor EL:0.9% sodium chloride (saline) (10:10:10:5:65 v/v). The dose volume for intravenous doses of test agents is 1 mL/kg.
Predose blood samples are obtained from all rats from both, oral and intravenous dosing groups. For the intravenously dosed rats, blood samples (100 uL each) are obtained at 0.083, 0.25. 0.5, 1.0, 2.0, 4.0, 8.0, 12.0 and 24.0 hours post-dose. For the oral dose groups, the sampling times are identical to the intravenous dose group, except that the 0.083 hour sample is not collected. Following the collection of the blood samples, an equal volume of water is added to the blood sample to hemolyze the blood sample and the samples are stored frozen at −70° C. until bioanalysis.
Plasma samples are analyzed for the concentration of the test non-covalent DNA binding agents of the invention using an HPLC method with mass spectrometric (MS/MS) detection, following a liquid:liquid extraction of the plasma samples using a dichloromethane:ethyl acetate (20:80) mixture. To a 100 μL aliquot of sample, 50 μL of an internal standard (NSC 723732) is added. After mixing the internal standard wen, 2.5 mL of the extracting solvent (dichloromethane:ethyl acetate 20:80 v/v) is added. The mixture is vortexed for one minute and the samples are centrifuged at 3000 rpm for 3 minutes. Approximately 2 mL of the supernatant is taken from the centrifuged tubes and the sample is dried under a nitrogen stream at 50° C. The residue is reconstituted with 100 μL of the mobile phase and 20 μL is injected into the HPLC system for analysis. The mobile phase is comprised of milli-Q water:acetonitrile:formic acid (20:80:0.05) adjusted to pH 7.5 with ammonia.
The analysis of the test agent concentration is conducted by an HPLC method using a Shimadzu Prominence HPLC system and the eluent is analyzed using an API 4000 LC-MS/MS system (Applied Biosystems). The samples are analyzed on a HyPurity Advance, 50×4.6 mm, 5 u, Thermoelectron column. An injection volume of 20 μL is used for the analytical sample and the flow rate of the mobile phase is 0.6 mL/minute. Mass spectrometric analysis is conducted on the eluent using the API 4000 LC-MS/MS system and the mass parameters are analyzed for MRM transitions using NSC 723732 as the internal standard, in a positive ionization mode at a temperature of 400 C.

[8] = test system: SW403; test: Growth inhibition in tumor cell lines (Table 2); type: cell-based, human; settings: SW403, colon, WT (EGFR over expression)
[9] = test system: HCT116 (mlh−); test: siRNA inhibition of p53 and REV functions, alamar blue growth inhibition; type: cell-based, human
Experimental: (§3) siRNA specific for different genes is purchased from Dharmacon (Thermo. Fisher Scientific Dharmacon Products, Lafayette, Colo. 80026) and the protocol recommended by the supplier is utilized. Confluent cells are trypsinized and 5000 cells are seeded in a well in the presence or absence of siRNA in 100 μL medium. The cells are incubated with siRNA for two days. A non-covalent DNA binding agent of the invention is added in a 10 μL volume and incubated for another 48 hours. After treatment with the agent, the medium is replaced with 1% alamar blue containing medium to measure fluorescence after two hours.
as §3, with “from Dharmacon (Thermo Fisher Scientific” for “from Dharmacon (Thermo. Fisher Scientific”, “two hours. […] The results are presented in FIGS. 14-18 (SEQ ID NO:3-12, respectively) and Table 7.” for “two hours.”

[10] = test system: U2OS Wild type; test: siRNA inhibition of MMR, p53 and REV functions, alamar blue growth inhibition; type: cell-based, human
Experimental: as §3
as §3, with “from Dharmacon (Thermo Fisher Scientific” for “from Dharmacon (Thermo. Fisher Scientific”, “two hours. […] The results are presented in FIGS. 14-18 (SEQ ID NO:3-12, respectively) and Table 7.” for “two hours.”

What does the source list for `COc1cc2c(cc1OCCCCCOc1cc3c(cc1OC)C(=O)N1CCC[C@H]1C(=O)N3)N=C[C@@H]1CCCN1C2=O` [NSC 718813]?
IC50 [1]: 90 µM; IC50 [2]: 11 µM; IC50 [3]: 90 µM; IC50 [4]: 7 µM; IC50 [5]: > 250 µM; IC50 [6]: 0.202 µM; Vdss ([7]; IV-bolus 3 mg/kg, rat): 1.5 ± 0.4 L/kg; AUC0-inf ([7]; IV-bolus 3 mg/kg): 2424 ± 309 ng·h/mL; AUC0-t ([7]; IV-bolus 3 mg/kg): 2376 ± 304 ng·h/mL; Cmax ([7]; IV-bolus 3 mg/kg): 5723 ± 1005 ng/mL; Tmax ([7]; IV-bolus 3 mg/kg): 0.08 h; T1/2 ([7]; IV-bolus 3 mg/kg, rat): 2.2 ± 0.4 h; CLblood ([7]; IV-bolus 3 mg/kg, rat, 3 mg/kg): approximately 20 mL/min/kg; CLblood ([7]; IV-bolus 3 mg/kg, rat, listed as NSC 718813/1, 3 mg/kg): 20.0 ± 2.9 mL/min/kg; time with rat blood concentrations well above in vitro GI50 and/or TGI ([7]; intravenous 3 mg/kg): at least 4 hours; F (oral absolute bioavailability) ([7]; oral 20 mg/kg vs IV 3 mg/kg, rat, dose-normalised AUC0-inf): 2%; time with measurable blood levels post-dose ([7]; oral dose 20 mg/kg): up to 8 hours; AUC0-inf ([7]; oral solution 20 mg/kg): 345 ± 142 ng·h/mL; AUC0-t ([7]; oral solution 20 mg/kg): 303 ± 129 ng·h/mL; Cmax ([7]; oral solution 20 mg/kg): 112 ± 32 ng/mL; Tmax ([7]; oral solution 20 mg/kg): 0.5 h; T1/2 ([7]; oral solution 20 mg/kg, rat): 1.8 ± 0.6 h; metabolic stability compared with naturally occurring antitumor antibiotic analogs ([7]; rat, inferred from systemic clearance): better metabolic stability; IC50 [8]: 0.21 µM; Fold improvement in IC50, p53 ([9]; p53 siRNA vs control): 12.5 fold; Fold improvement in IC50, rev ([9]; rev siRNA vs control): 7.1 fold; Fold improvement in IC50, mlh1 ([10]; mlh1 siRNA vs control): 3.0 fold; IC50 ([10]; no siRNA knock out, read-out: IC50, Control): 0.3 µM; Fold improvement in IC50, p53 ([10]; p53 siRNA vs control): 10 fold; Fold improvement in IC50, rev ([10]; rev siRNA vs control): 5 fold
